System: miR-122 targets
Experiment: RNA-Seq of miR-122 targetome (negative control)
Format: cell-based, human
Method: As described in Example 3, total RNA was isolated from DM-patient and healthy cells, and cDNA libraries were prepared for three conditions (healthy volunteer (HV); DM; DM+Compound II) for DM1 and DM2 backgrounds. The expression levels of predicted targetomes of miRNAs let-7, miR-1, miR-9, miR-29, miR-30, miR-107 and miR-181 were then compared, using miR-122 as well as more than 2,000 transcripts that are not predicted targets of any miRNA as negative controls. Three pair-wise comparisons were performed to measure: i) how a targetome varies between healthy and diseased cells (HV versus DM), ii) how a targetome responds to treatment with the inventive compounds (DM versus DM+Compound II) and, iii) how a Compound II-treated DM-targetome compares to that of a healthy signature. For each pair-wise comparison, the third dataset was used as a reference and the fold changes were calculated for each target transcript (e.g. DM1 vs. DM1+Compound II, with fold changes calculated relative to HV).
Primary myoblasts or myotubes derived from DM1 or DM2 patient samples and non-DM healthy control individuals were cultured for 90% confluence and then treated with 120 μM Compound II for 72 h. […] Quality and size distribution of the generated libraries was validated using an Agilent 2100 bioanalyzer with high-sensitivity RNA chip (Agilent) and RNA yield was measured using the Qubit […] HS Assay Kit followed by pooling of the libraries in batches of 12 and sequencing of […] pooled library on an Nextseq 500/High Output Flow Cell Cartridge using a paired end, 2×76 reads, single index protocol.
RNA-Seq reads were mapped to the human genome (build GRCh38) using STAR (Dobin et al., (2013). STAR: ultrafast universal RNA-seq aligner. Bioinformatics 29, 15-21) with gene annotations from gencode (www.gencodegenes.org; version 40). Reads mapping uniquely to exons were counted for each gene using htseq-count (Anders et al., (2015). HTSeq—a Python framework to work with high-throughput sequencing data. Bioinformatics 31, 166-169) with the parameter -s reverse and -m intersection_strict. […]

CC(=O)N(C)c1cccc(-c2ccc3nnc(C)n3n2)c1 [Compound II]
change of miR-122 targets (DM1 and DM2 myotubes, 120 μM, 72 h): not significantly changed
change of miR-122 targets (DM1 myoblasts, 120 μM, 72 h): not significantly changed
change of miR-122 targets (DM2 myoblasts, compared to targetomes of other miRNAs): weaker change

Source: patent publication US20260224595A1, “COMPOUNDS FOR THE TREATMENT OF MYOTONIC DYSTROPHY” (ETH ZURICH, priority 2022, published 2026)
